# Key:
# [1] = test system: DIPGX37 (H3.3 K27M diffuse intrinsic pontine glioma line); test: EC50 (inflection of fitted growth-inhibition curve) (log10 M)
# Outline: (§1)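 Compounds were delivered by pin tool as a 10-point threefold dilution series with a mean top concentration of 35 μM, in triplicate, to patient-derived pHGG/DIPG cell lines and astrocyte controls growing on 1% Geltrex-coated 384-well plates. Incubation lasted 7 days, or 3 days for iAstro, at 37 °C with 5% CO2. EC50 and maximal response (yFin) come from the three- or four-parameter log-logistic fit with the lowest AICc, applied to pooled, log2-transformed CellTiter-Glo luminescence normalised per plate to % activity between solvent (negative) and positive control wells.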
# [2] = test system: DIPGX9 (diffuse intrinsic pontine glioma line); test: maximal growth inhibition (yFin) relative to DMSO / staurosporine; higher = more efficacious
# Outline: as §1
# [3] = test system: HABS (astrocyte control); test: as above
# Outline: as §1
# [4] = test system: SUDIPGIV (diffuse intrinsic pontine glioma line); test: as above
# Outline: as §1
# [5] = test system: SUDIPGVI (diffuse intrinsic pontine glioma line); test: as above
# Outline: as §1
# [6] = test system: HGGX2 (paediatric high-grade glioma line); test: as above
# Outline: as §1
# [7] = test system: SUDIPGXIX (diffuse intrinsic pontine glioma line); test: as above
# Outline: as §1
# [8] = test system: SUDIPGXIII (diffuse intrinsic pontine glioma line); test: as above
# Outline: as §1
# [9] = test system: SUDIPGXVII (diffuse intrinsic pontine glioma line); test: as above
# Outline: as §1
# [10] = test system: DIPGX7 (H3.3 K27M diffuse intrinsic pontine glioma line); test: as above
# Outline: as §1
# [11] = test system: DIPGX29 (H3.3 K27M diffuse intrinsic pontine glioma line); test: as above
# Outline: as §1
# [12] = test system: HGGX39 (paediatric high-grade glioma line); test: as above
# Outline: as §1
# [13] = test system: SUDIPGXXI (diffuse intrinsic pontine glioma line); test: as above
# Outline: as §1
# [14] = test system: HGGX6 (H3.3 G34R paediatric high-grade glioma line); test: as above
# Outline: as §1
# [15] = test system: DIPGX37; test: as above
# Outline: as §1
# [16] = test system: iAstro (astrocyte control); test: as above
# Outline: as §1
# [17] = test system: HGGX42 (H3.3 G34R paediatric high-grade glioma line); test: as above
# Outline: as §1
Compound,EC50 (log10 M) [1],maximal growth inhibition [2] [%],maximal growth inhibition [3] [%],maximal growth inhibition [4] [%],maximal growth inhibition [5] [%],maximal growth inhibition [6] [%],maximal growth inhibition [7] [%],maximal growth inhibition [8] [%],maximal growth inhibition [9] [%],maximal growth inhibition [10] [%],maximal growth inhibition [11] [%],maximal growth inhibition [12] [%],maximal growth inhibition [13] [%],maximal growth inhibition [14] [%],maximal growth inhibition [15] [%],maximal growth inhibition [16] [%],maximal growth inhibition [17] [%]
COc1cccc2c1C(=O)c1c(O)c3c(c(O)c1C2=O)C[C@@](O)(C(=O)CO)C[C@@H]3O[C@H]1C[C@H](N)[C@H](O)[C@H](C)O1 [DOXORUBICIN],-6.4,99.9,69.6,97.8,89.1,61.1,97.2,87.7,95.8,103,102,101,95.8,86.1,86.8,26.4,96.5
CCCCc1oc2ccc(NS(C)(=O)=O)cc2c1C(=O)c1ccc(OCCCN(CCCC)CCCC)cc1 [DRONEDARONE],-5.38,123,119,122,121,116,123,117,122,120,104,106,127,93.4,99.7,104,119
CCOC(=O)CCNc1cc(N2CCc3ccccc3CC2)nc(-c2ccccn2)n1 [GSK-J4],-4.9,94.2,72.9,61.5,44.1,100,98.3,48.1,55.2,46.7,69.6,63.1,112,62.6,56.1,69.4,100
O=C(c1ccc(Nc2nccc(-c3cc4ccccc4s3)n2)cc1)N1CCC(N2CCCC2)CC1 [IKK 16],-5.52,122,124,115,104,104,128,114,118,108,117,119,120,106,120,94.4,107
CC(C)C[C@H](NC(=O)CNC(=O)c1cc(Cl)ccc1Cl)B(O)O [IXAZOMIB],-7.94,82.6,84.1,89.4,73.9,86,88.1,77.3,81,81.4,77.5,84.7,86.4,79.4,79.9,67.4,70.6
"Cc1c(C2CCN(CCc3ccccc3)CC2)noc1-c1ccc(Cl)cc1 [L-741,742]",-4.93,22.2,31.3,77.7,44.4,42.8,27.2,22.9,34.3,104,82.8,84,106,69.7,101,43.2,74.2
C[C@@]12OC(=O)[C@]1([C@@H](O)[C@@H]1C=CCCC1)NC(=O)[C@@H]2CCCl [MARIZOMIB],-6.54,101,54.9,119,103,98.7,94.2,28.3,40.4,101,32.8,96.6,109,55.2,99.7,89.6,62.8
Nc1ccccc1NC(=O)c1ccc(CNc2nccc(-c3cccnc3)n2)cc1 [MOCETINOSTAT],-5.51,103,94.6,104,97.2,96.5,100,74.1,93,104,78.5,96.8,126,84.8,96,38.2,78
O=C(Nc1ccc([N+](=O)[O-])cc1Cl)c1cc(Cl)ccc1O [NICOLSAMIDE],-5.74,94,82.4,92.4,74.1,93.8,89,84.2,88.7,86,78.2,96.9,110,71.9,81.9,34.7,87.9
CCNC(=O)c1noc(-c2cc(C(C)C)c(O)cc2O)c1-c1ccc(CN2CCOCC2)cc1 [NVP-AUY922],-7.47,84.4,86.9,55.9,35.2,49.9,76.3,61.3,63.9,48.5,80.4,80.3,115,29.6,82.2,51,34.4
CCCS(=O)(=O)c1nc(NC2CC2)cc(-c2ccc3c(ccn3C3CC(C)(C)NC(C)(C)C3)c2)n1 [NVS-1],-5.99,88.9,86.9,90.5,88.4,86.7,90.7,88.4,88.4,95.1,82.2,82.8,104,79.3,79.6,83.2,88.2
COC1=CC(c2cc3ccccc3[nH]2)=N/C1=C\c1[nH]c(C)cc1C [OBATOCLAX],-5.01,131,128,131,128,115,143,108,128,129,126,124,127,123,128,101,119
C[C@@H]1O[C@@H](O[C@H]2C[C@@H](O)[C@]3(CO)[C@H]4[C@H](O)C[C@]5(C)[C@@H](C6=CC(=O)OC6)CC[C@]5(O)[C@@H]4CC[C@]3(O)C2)[C@H](O)[C@H](O)[C@H]1O [OUABAIN],-6.7,70.1,69.1,103,60.1,63.9,83.6,46.9,73.5,100,53.4,75.1,90.6,64.9,46.7,47.1,53.3
Cc1[nH]c2ccccc2c1CCNCc1ccc(/C=C/C(=O)NO)cc1 [PANOBINOSTAT],-6.87,90.7,95.2,86.4,86.9,90,106,93.9,90.9,89,76.5,75.6,110,73.9,76.5,48,95.5
OC1(c2ccc(Cl)c(C(F)(F)F)c2)CCN(CCCC(c2ccc(F)cc2)c2ccc(F)cc2)CC1 [PENFLURIDOL],-5.35,105,88.6,97.2,98.5,98.9,97.4,92.8,95.6,102,94.8,91,106,84.9,93.5,85.2,98.5
Cc1ccc(C(=O)Nc2ccc(CN3CCN(C)CC3)c(C(F)(F)F)c2)cc1C#Cc1cnc2cccnn12 [PONATINIB],-5.38,94.2,103,100,97.8,99.6,99.8,96,101,101,104,99.3,97.2,97.4,101,95,99
O=C(Nc1ccccc1-c1cn2c(CN3CCNCC3)csc2n1)c1cnc2ccccc2n1 [SRT1720],-5.19,103,98.3,104,93.9,99.1,104,94.6,99.2,102,94.6,95.5,105,90.5,94.6,91.6,102
CCN(CC)CCNC(=O)c1c(C)[nH]c(/C=C2\C(=O)Nc3ccc(F)cc32)c1C [SUNITINIB],-4.77,117,122,119,108,108,129,113,120,116,103,105,115,107,101,97.5,112
CN(C)C/C=C/C(=O)Nc1ccc(C(=O)Nc2cccc(Nc3ncc(Cl)c(-c4c[nH]c5ccccc45)n3)c2)cc1 [THZ1],-7.71,88.7,100,87.4,85.3,97.5,84.4,85,87.2,88.6,87.4,86.2,107,81.5,81.3,99.1,110
